In patent US20200207989A1, “FLUORESCENT PROBE FOR ALDH3A1 DETECTION” (The University of Tokyo, priority 2016, published 2020):

Experiments:
ALDH3A1 = molecular target: T1, ALDH3A1 (Homo sapiens, UniProt P30838); assay: Reactivity of probes to recombinant ALDH3A1 (UPLC/MS/MS); format: biochemical; details: 10-100 nM ALDH, 10-80 μM compound, Tris buffer pH 7.5, 30 minutes at 37° C., ◯/X not defined by a legend
T1 construct: purchased
T1 sequence (P30838 1-453): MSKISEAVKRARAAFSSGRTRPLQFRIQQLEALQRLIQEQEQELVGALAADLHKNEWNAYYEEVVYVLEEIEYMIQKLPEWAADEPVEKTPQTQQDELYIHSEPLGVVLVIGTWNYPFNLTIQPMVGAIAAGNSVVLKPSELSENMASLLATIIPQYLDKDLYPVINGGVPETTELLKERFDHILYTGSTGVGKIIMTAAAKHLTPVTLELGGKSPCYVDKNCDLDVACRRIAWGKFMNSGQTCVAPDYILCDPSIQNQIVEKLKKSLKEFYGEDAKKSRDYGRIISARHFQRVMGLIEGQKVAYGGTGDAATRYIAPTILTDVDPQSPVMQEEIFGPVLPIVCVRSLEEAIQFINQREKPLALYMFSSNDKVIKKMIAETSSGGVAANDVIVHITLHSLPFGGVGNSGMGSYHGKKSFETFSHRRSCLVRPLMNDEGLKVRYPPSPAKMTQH
Description: (§1) Human recombinant ALDH1A1/1A3/3A1 was purchased, and 100 mM of KCL, 2 mM of DTT, 1 mM of NAD(P), 10-100 nM of each ALDH, and 10-80 μM of each compound were mixed in Tris buffer (100 mM, pH 7.5), reacted for 30 minutes at 37° C., an equal amount of acetonitrile added, and the reaction stopped. The reaction solution was analyzed by UPLC/MS/MS (Waters). The UPCL chromatogram was carried out over five minutes at a flow rate of 800 μL/min by a linear gradient from 5% acetonitrile 0.01 M ammonium formate/water to 95% acetonitrile 0.01 M ammonium formate/water.

[1] = HPLC (LC/MS) retention time as measure of hydrophilicity / membrane permeability; format: physicochemical; details: C18 column, 20% B 2.5 min, 20%-->100% B 5 min, 500 μL/min, neutral conditions, mean±SD of three tests
Description: In the present invention, it is preferable to use the retention time on an HPLC chromatogram as the measure of hydrophilicity.
HPLC conditions: taking solvent A to be 0.01 M ammonium formate/water and solvent B to be 80% acetonitrile 0.01 M ammonium formate/water, chromatography is carried out under conditions of 20% solvent B for 2.5 minutes followed by a 5-minute linear gradient of solvent B from 20% to 100% (flow rate 500 μL/min).
A C18 column (HP 3 μm, inner diameter: 2.1 mm, length: 150 mm, GL Science), for example, can be used suitably as the column.
The water solubility was verified by LC/MS under neutral conditions to compare the membrane permeability of the five probes produced above and ALDEFLUOR. The reaction was stopped after advancing the reaction to the point that each probe was present as both a carboxylic acid form and an aldehyde form using a suitable isoform and concentration of ALDH, and analysis was conducted by LC/MS (Agilent 1200/6130 quadrupole LC/MS system). A C18 column (HP 3 μm, inner diameter: 2.1 mm, length: 150 mm, GL Science) was used as the column. HPLC chromatograms were carried out by 20% B for 2.5 minutes followed by a five-minute linear gradient (flow rate: 500 μL/min) from 20% to 100% B, taking solvent A to be 0.01 M ammonium formate/water and solvent B to be 80% acetonitrile 0.01 M ammonium formate/water. The probe containing BODIPY was detected by the absorbance at a wavelength of 504 nm and the probe containing TG at a wavelength of 495 nm, and m/z of the MS spectrum at each peak was confirmed to agree with the expected m/z. Three independent tests were run, and the mean±SD was calculated. […] Given that imaging of probe 1 was not successful, there was thought to be a threshold at which the membrane permeability changes rapidly between this 6.741 minutes and 7.098 minutes (band in FIG. 2).

ALDH1A3 = molecular target: T2, ALDH1A3 (Homo sapiens, UniProt P47895); assay: Reactivity of probes to recombinant ALDH1A3 (UPLC/MS/MS); format: biochemical; details: 10-100 nM ALDH, 10-80 μM compound, Tris buffer pH 7.5, 30 minutes at 37° C., ◯/X not defined by a legend
T2 construct: purchased
T2 sequence (P47895 1-512): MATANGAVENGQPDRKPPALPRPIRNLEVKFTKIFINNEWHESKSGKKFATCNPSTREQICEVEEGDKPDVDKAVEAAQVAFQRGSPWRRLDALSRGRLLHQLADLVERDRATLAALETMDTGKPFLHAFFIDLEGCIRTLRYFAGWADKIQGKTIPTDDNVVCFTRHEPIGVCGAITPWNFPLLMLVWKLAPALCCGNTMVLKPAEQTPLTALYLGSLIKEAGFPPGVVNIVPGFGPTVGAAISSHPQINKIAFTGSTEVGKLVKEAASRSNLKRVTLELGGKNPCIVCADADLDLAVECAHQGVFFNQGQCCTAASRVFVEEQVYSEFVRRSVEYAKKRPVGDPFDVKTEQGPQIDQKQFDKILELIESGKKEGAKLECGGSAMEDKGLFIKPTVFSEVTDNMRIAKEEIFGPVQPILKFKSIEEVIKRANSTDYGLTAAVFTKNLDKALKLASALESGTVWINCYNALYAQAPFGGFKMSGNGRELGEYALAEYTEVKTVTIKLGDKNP
Description: as §1

Substance: N-(4-formylbenzyl)-3-(1,3-dimethyl-4,4-difluoro-4-bora-3a,4a-diaza-s-indacen-5-yl)-propionamide [Probe 1]
- Reactivity to ALDH3A1 (ALDH3A1): ◯
- Reactivity to ALDH3A1 (ALDH3A1; listed as Compound 1): reacted with all three of the isoforms tested
- Retention Time, Aldehyde form [1]: 8.874 ± 0.000 min
- Retention Time, carboxylate (carboxylic acid form) [1]: 7.098 ± 0.001 min
- Retention Time, carboxylate (carboxylic acid form) ([1]; listed as probe 1): 7.098 min
- Reactivity to ALDH1A3 (ALDH1A3): ◯
- Reactivity to ALDH1A3 (ALDH1A3; listed as Compound 1): reacted with all three of the isoforms tested
